Experimental data reported in patent US20260325605A1, “INHIBITORS” (Zealand Pharma A/S, priority 2022, published 2026).

Experiments:
[1] = tested on: T-cell activation in rat whole blood; test: Example 4: IL-17A release in thapsigargin stimulated rat whole blood; format: cell-based, rat (Lewis or Sprague-Dawley); details: 24 Hr, at least 2 replicates, unit inferred, read-out: IC50 (inhibition of IL-17A release)
Source text: Rat whole blood was used to assess the potency of Kv1.3 inhibitor peptides on T-cell activation as determined by IL-17A release after stimulation with thapsigargin. Addition of thapsigargin results in activation of a signalling cascade ending up in activation of T cell proliferation and cytokine production where the Kv1.3 ion channel plays a key role, so activity of Kv1.3 inhibitors in primary cells can be measured in this experimental system.
Rat whole blood was obtained from healthy, naïve Lewis or Sprague-Dawley rats that were terminally bleed from the heart using Sodium Heparin blood sampling tubes for collection. Peptides were diluted to 4× final testing concentrations in assay buffer (DMEM+GlutaMAX), GlutaMAX is a medium comprising 3.97 mM L-alanine-L-glutamine (Gibco Cat #61965026) supplemented with 25 mM HEPES buffer, 1 mM Sodium Pyruvate, 100 units/ml Penicillin, 100 μg/ml Streptomycin and 0.05% Casein from bovine milk (Sigma-Aldrich)) and 25 μl was added to wells of a 96 well plate. Then 50 μl whole rat blood was added and incubated for minimum 5 minutes at room temperature to allow compound binding. Then 25 μl 40 μM thapsigargin diluted in assay buffer was added to all wells of the assay plates to activate the cells, followed by incubation for 24 Hr at 37° C./5% CO2 in a humidified box. The assay plates were centrifuged for 10 min at 300 g at 4° C. and the supernatants were transferred to new plates. The concentrations of IL-17A released to the supernatants were measured using a Rat IL-17A ELISA Kit (Abcam Cat #ab214028) as recommended by the manufacturer. Samples were diluted 2.5-fold by transferring 20 μl of the supernatants to wells on ELISA plates containing 30 μl buffer 75BS from the detection kit.
Data from peptides eliciting an inhibition of IL-17A were normalised relative to full thapsigargin activation (no inhibitor added) and no activation controls (addition of assay buffer instead of thapsigargin) to calculate the IC50 from the concentration response curve.
Results are shown in Table 5, expressed as IC50, with standard deviation (IC50_SD). All values are derived from at least 2 replicates. The biological effects ex vivo show a correlation with the potency of the peptides.

[2] = biological target: T1, Kv1.6 (Homo sapiens, UniProt P17658); test: Patch clamp assay (QPatch), Kv1.6; format: cell-based; details: for IC50: QPatch, CHO cells stably expressing human Kv1.6, read-out: Potency IC50, Kv1.6; for Selectivity Kv1.6/Kv1.3: ratio of IC50 Kv1.6/Kv1.3
T1 construct: expressed in transfected cells
Method: (§1) Selectivity of Kv1.3 inhibitor peptides for Kv1.3 over other potassium ion channels (Kv1.1, Kv1.2 and Kv1.6) was determined using patch clamp assay.
(§2) Chinese Hamster Ovary (CHO) cell lines stably expressing exogenous human α-subunits of each potassium ion channel were grown and passaged under standard culture conditions.
(§3) The automated, chip-based planar patch clamp device QPatch® was used to quantitate the ionic currents. All recordings were made in the conventional whole-cell configuration after establishment of gigaohm seals. […] During experiments 0.1% (v/v) BSA was included as a vehicle in all external recording solutions. Currents were elicited from a holding potential of −80 mV using a voltage protocol, which shifted the voltage to 30 mV for 500 ms every 15 s.
(§4) Concentration-response relationships were established by cumulatively applying seven escalating concentrations of test sample to an individual cell with a recording period of 2 min per compound application.
(§5) The efficacy was determined as the mean charge for the last three sweeps at the end of each concentration application period from the cursor positions. The percent inhibition for each test dose application period was calculated as the reduction in mean cursor value (charge) relative to the cursor value measured at the end of the vehicle period and used to calculate the IC50 from the concentration response curve.

[3] = biological target: T2, Kv1.2 (Homo sapiens, UniProt P16389); test: Patch clamp assay (QPatch), Kv1.2; format: cell-based; details: for IC50: QPatch, CHO cells stably expressing human Kv1.2, read-out: Potency IC50, Kv1.2; for Selectivity Kv1.2/Kv1.3: ratio of IC50 Kv1.2/Kv1.3
T2 construct: expressed in transfected cells
Method: as §1, §2, §3, §4, §5

[4] = biological target: T3, Kv1.3 (Homo sapiens, UniProt P22001); test: Patch clamp assay (QPatch), Kv1.3; format: cell-based; details: CHO cells stably expressing human Kv1.3, read-out: Potency IC50, Kv1.3
T3 construct: expressed in transfected cells
Method: as §1, §2, §3, §4, §5

[5] = biological target: T4, Kv1.1 (Homo sapiens, UniProt Q09470); test: Patch clamp assay (QPatch), Kv1.1; format: cell-based; details: for IC50: QPatch, CHO cells stably expressing human Kv1.1, read-out: Potency IC50, Kv1.1; for Selectivity Kv1.1/Kv1.3: ratio of IC50 Kv1.1/Kv1.3
T4 construct: expressed in transfected cells
Method: as §1, §2, §3, §4, §5

[6] = Example 6: Pharmacokinetic characterisation after s.c. administration; format: in vivo, rat (Sprague Dawley or Wistar); details: rat, 70 nmol/kg; for AUCINF / Cmax: plasma; for T1/2: plasma terminal elimination half-life
Method: Sprague Dawley or Wistar rats (males with a body weight of approximately 250-350 g) were given a single subcutaneous (s.c.) injection of each peptide to be tested.
Following s.c. administration of the selected peptides (dose 70 nmol/kg, dosing volume either 2 or 5 mL/kg), blood samples were drawn at 15 min, 30 min, 45 min, 60 min, 90 min, 2 h, 3 h, 4 h post-dose. At each sampling time point, samples from the rats were drawn by sublingual bleeding or by tail cut. After last sampling the rats were sacrificed by O2/CO2 anaesthesia. The dosing vehicle was 10 mM phosphate, 0.8% NaCl, 0.05% Polysorbate 20 (pH 6.0).
Plasma samples were analyzed after solid phase extraction (SPE) by liquid chromatography mass spectrometry (LC-MS/MS). Mean plasma concentrations were used for calculation of the pharmacokinetic parameters using the non-compartmental approach in Phoenix WinNonlin 6.4 or a later version. […]. AUCinf is the area under the plasma concentration−time curve extrapolated to infinity (AUCinf=AUClast+Clast/λz, where Clast is the last observed plasma concentration). Cmax is the maximum observed concentration, occurring at Tmax.

T2 sequence (P16389 whole entry): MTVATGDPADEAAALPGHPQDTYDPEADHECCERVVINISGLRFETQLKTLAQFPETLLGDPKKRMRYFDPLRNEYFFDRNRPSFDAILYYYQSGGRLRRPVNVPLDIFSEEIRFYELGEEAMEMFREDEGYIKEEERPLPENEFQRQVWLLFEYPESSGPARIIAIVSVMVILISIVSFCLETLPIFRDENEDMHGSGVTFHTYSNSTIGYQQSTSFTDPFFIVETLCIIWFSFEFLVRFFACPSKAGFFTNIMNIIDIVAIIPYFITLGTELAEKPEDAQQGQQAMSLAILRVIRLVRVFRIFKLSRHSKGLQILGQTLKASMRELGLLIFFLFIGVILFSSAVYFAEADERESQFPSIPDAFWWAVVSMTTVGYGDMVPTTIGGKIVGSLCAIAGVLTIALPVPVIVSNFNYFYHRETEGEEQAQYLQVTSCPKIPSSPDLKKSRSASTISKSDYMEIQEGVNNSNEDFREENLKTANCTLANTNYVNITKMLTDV
T4 sequence (Q09470 whole entry): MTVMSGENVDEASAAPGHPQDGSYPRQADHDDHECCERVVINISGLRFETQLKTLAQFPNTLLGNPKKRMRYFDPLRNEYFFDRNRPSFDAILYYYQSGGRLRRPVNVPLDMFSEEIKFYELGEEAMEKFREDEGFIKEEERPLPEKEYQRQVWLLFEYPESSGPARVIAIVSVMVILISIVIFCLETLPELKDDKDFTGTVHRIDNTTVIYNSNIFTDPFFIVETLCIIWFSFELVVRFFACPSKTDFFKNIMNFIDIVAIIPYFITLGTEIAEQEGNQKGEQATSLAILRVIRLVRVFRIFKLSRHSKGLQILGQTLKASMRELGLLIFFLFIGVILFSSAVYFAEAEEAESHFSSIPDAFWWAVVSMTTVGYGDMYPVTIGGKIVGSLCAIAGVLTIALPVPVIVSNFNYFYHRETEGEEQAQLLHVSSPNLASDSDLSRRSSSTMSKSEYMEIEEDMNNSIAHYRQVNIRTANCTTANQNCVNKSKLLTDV
T3 sequence (P22001 whole entry): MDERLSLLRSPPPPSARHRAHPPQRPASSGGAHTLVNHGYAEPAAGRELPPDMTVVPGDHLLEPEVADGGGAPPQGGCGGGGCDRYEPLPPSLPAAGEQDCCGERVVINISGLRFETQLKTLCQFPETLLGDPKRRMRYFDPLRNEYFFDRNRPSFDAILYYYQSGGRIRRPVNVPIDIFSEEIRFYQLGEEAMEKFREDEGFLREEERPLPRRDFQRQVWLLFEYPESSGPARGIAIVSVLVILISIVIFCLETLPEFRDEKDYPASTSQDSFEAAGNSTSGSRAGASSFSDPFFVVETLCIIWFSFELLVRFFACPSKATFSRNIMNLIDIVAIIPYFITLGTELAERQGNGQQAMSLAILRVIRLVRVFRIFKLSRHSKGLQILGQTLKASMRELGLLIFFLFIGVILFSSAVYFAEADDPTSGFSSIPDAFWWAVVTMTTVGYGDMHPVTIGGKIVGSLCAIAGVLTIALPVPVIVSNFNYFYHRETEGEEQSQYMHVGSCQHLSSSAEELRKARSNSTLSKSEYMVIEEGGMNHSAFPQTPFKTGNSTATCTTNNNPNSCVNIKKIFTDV
T1 sequence (P17658 whole entry): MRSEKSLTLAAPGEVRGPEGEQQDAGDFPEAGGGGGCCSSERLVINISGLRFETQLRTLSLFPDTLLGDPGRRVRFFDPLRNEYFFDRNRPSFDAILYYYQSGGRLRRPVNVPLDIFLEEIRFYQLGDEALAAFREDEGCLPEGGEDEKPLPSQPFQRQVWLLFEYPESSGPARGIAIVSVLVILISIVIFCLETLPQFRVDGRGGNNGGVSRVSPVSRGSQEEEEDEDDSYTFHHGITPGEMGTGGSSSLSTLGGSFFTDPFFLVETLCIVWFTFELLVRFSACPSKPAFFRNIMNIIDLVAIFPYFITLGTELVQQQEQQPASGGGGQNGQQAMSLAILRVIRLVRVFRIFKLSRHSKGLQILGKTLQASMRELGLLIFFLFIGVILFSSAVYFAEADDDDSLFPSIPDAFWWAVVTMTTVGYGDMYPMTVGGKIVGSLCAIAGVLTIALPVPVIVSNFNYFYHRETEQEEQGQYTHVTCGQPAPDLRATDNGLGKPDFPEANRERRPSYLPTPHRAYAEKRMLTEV

Row | Substance | IC50 [1] | IC50 [2] | Selectivity Kv1.6/Kv1.3 [2] | IC50 [3] | Selectivity Kv1.2/Kv1.3 [3] | IC50 [4] | IC50 [5] | Selectivity Kv1.1/Kv1.3 [5] | AUCINF [6] | Cmax [6] | T1/2 [6]
1 | H-NMDMRC(1)SASVEC(2)AQKC(3)LKAIGSIFGKC(1)MNKKC(2)KC(3)YPR-NH2 [Peptide 31] | 0.41 nM | > 3000 nM | >22000 | 666 nM | 4897 | 0.14 nM | > 3000 nM | >22000 | 0.0467 µM·h | 33.3 nM | 44.4 min
2 | H-MDMRC(1)SASVEC(2)KQKC(3)LKAIGSIFGKC(1)MNKKC(2)KC(3)YPR-OH [Peptide 6] | – | > 3000 nM | >7900 | 285 nM | 747 | 0.38 nM | > 3000 nM | >7900 | 0.0724 µM·h | 48.4 nM | 55.8 min
3 | H-NID[Nle]RC(1)SASVEC(2)KQKC(3)LKAIGSIFGKC(1)[Nle]NKKC(2)KC(3)YPR-OH [Peptide 98] | 1.2 nM | > 3000 nM | >11300 | 2060 nM | 7756 | 0.27 nM | > 3000 nM | >11300 | 0.085 µM·h | 46.5 nM | 65.4 min
4 | H-N[Nle]D[Nle]RC(1)RASVEC(2)KQKC(3)LKAIGSIFGKC(1)[Nle]NKKC(2)KC(3)YPR-NH2 [Peptide 43] | 0.91 nM | 316 nM | 1954 | 109 nM | 674 | 0.16 nM | > 3000 nM | >18600 | – | – | –
5 | H-NIDMRC(1)SASVEC(2)KQKC(3)LKAIGSIFGKC(1)MNKKC(2)KC(3)YPR-OH [Peptide 9] | – | > 3000 nM | >6800 | 376 nM | 857 | 0.44 nM | > 3000 nM | >6800 | 0.0983 µM·h | 76.9 nM | 37.2 min
6 | H-S[Nle]D[Nle]RC(1)SASVEC(2)GQKC(3)LKAIGSIFGKC(1)MNKKC(2)KC(3)YPR-NH2 [Peptide 73] | 0.3 nM | > 3000 nM | >27700 | 373 nM | 3438 | 0.11 nM | > 3000 nM | >27700 | – | – | –
7 | H-S[Nle]D[Nle]RC(1)SASVEC(2)KQKC(3)LKAIGSIFGKC(1)MNKKC(2)KC(3)[F(4-NH2)]PR-NH2 [Peptide 72] | 0.79 nM | > 3000 nM | >12200 | 423 nM | 1720 | 0.25 nM | > 3000 nM | >12200 | – | – | –
8 | H-NMDMRC(1)SISVEC(2)KQKC(3)LKAIGSIFGKC(1)MNKKC(2)KC(3)YPR-NH2 [Peptide 27] | 0.61 nM | > 3000 nM | >11800 | 43 nM | 169 | 0.26 nM | > 3000 nM | >11800 | – | – | –
9 | Ac-C(1)SASVEC(2)KQKC(3)LKAIGSIFGKC(1)[Nle]NKKC(2)KC(3)YPR-NH2 [Peptide 109] | 0.88 nM | > 3000 nM | >12400 | 384 nM | 1591 | 0.24 nM | > 3000 nM | >12400 | – | – | –
10 | H-[Nle]D[Nle]RC(1)SASVEC(2)KQKC(3)LKAIGSIFGKC(1)[Nle]NKKC(2)KC(3)YPR-OH [Peptide 97] | 0.55 nM | > 3000 nM | >17800 | 1860 nM | 11034 | 0.17 nM | > 3000 nM | >17800 | – | – | –
11 | H-NMDMRC(1)SASREC(2)KQKC(3)LKAIGSIFGKC(1)MNKKC(2)KC(3)YPR-NH2 [Peptide 28] | 0.68 nM | 206 nM | 1778 | 11 nM | 94 | 0.12 nM | > 3000 nM | >25900 | – | – | –
12 | Ac-LRC(1)SASVEC(2)KQKC(3)LKAIGSIFGKC(1)[Nle]NKKC(2)KC(3)YPR-NH2 [Peptide 114] | 0.37 nM | 2460 nM | 7096 | 122 nM | 352 | 0.35 nM | > 3000 nM | >8700 | – | – | –
13 | H-NMDMRC(1)SASVEC(2)KQKC(3)LKAIESIFGKC(1)MNKKC(2)KC(3)YPR-NH2 [Peptide 23] | 2.8 nM | > 3000 nM | >10200 | 181 nM | 615 | 0.29 nM | > 3000 nM | >10200 | – | – | –
14 | H-N[Nle]D[Nle]RC(1)SHSVEC(2)KQKC(3)LKAIGSIFGKC(1)[Nle]NKKC(2)KC(3)YPR-NH2 [Peptide 48] | 0.83 nM | 609 nM | 1134 | 772 nM | 1438 | 0.54 nM | > 3000 nM | >5600 | – | – | –
15 | H-NMDMRC(1)SASVEC(2)LQKC(3)LKAIGSIFGKC(1)MNKKC(2)KC(3)YPR-NH2 [Peptide 30] | 0.76 nM | > 3000 nM | >7400 | 874 nM | 2163 | 0.4 nM | > 3000 nM | >7400 | – | – | –
16 | H-NMDMRC(1)SASVEC(2)KQKC(3)LYAIGSIFGKC(1)MNKKC(2)KC(3)YPR-NH2 [Peptide 54] | – | > 3000 nM | >10300 | 149 nM | 514 | 0.29 nM | > 3000 nM | >10300 | 0.0311 µM·h | 50 nM | 52.2 min
17 | H-NMDMRC(1)SASVEC(2)KQKC(3)KKAIGSIFGKC(1)MNKKC(2)KC(3)YPR-NH2 [Peptide 20] | 0.56 nM | 435 nM | 1955 | 45 nM | 202 | 0.22 nM | > 3000 nM | >13500 | – | – | –
18 | H-NMDMRC(1)SASVEC(2)KQLC(3)LKAIGSIFGKC(1)MNKKC(2)KC(3)YPR-NH2 [Peptide 19] | 3.2 nM | > 3000 nM | >12700 | 256 nM | 1080 | 0.24 nM | > 3000 nM | >12700 | – | – | –
19 | H-NMDMRC(1)SASVEC(2)KEKC(3)LKAIGSIFGKC(1)MNKKC(2)KC(3)YPR-NH2 [Peptide 32] | 0.86 nM | > 3000 nM | >10800 | 179 nM | 648 | 0.28 nM | > 3000 nM | >10800 | – | – | –
